Assay [1] deals with Mycosphaerella graminicola; Anamorph: Zymoseptoria tritici. Put plainly: Fungicidal activity: Leaf Blotch of Wheat (SEPTTR), wheat seedlings. It is filed as in vivo. The following applies: for pest or weed control at 121.5 g/ha: Low Volume (121.5 g/H). As for the experimental part:
Example A: Evaluation of Fungicidal Activity: Leaf Blotch of Wheat (Mycosphaerella graminicola; Anamorph: Zymoseptoria tritici; Bayer Code […]) Technical grades of materials were dissolved in acetone, which were then mixed with nine volumes of water containing 110 ppm Triton X-100. The fungicide solutions were applied onto wheat seedlings using an automated booth sprayer to run-off. All sprayed plants were allowed to air dry prior to further handling. All fungicides were evaluated using the aforementioned method for their activity vs. all target diseases, unless stated otherwise. Wheat leaf blotch and brown rust activity were also evaluated using track spray applications, in which case the fungicides were formulated as EC formulations, containing 0.1% Trycol 5941 in the spray solutions. Wheat plants (variety Yuma) were grown from seed in a greenhouse in 50% mineral soil/50% soil-less Metro mix until the first leaf was fully emerged, with 7-10 seedlings per pot. These plants were inoculated with an aqueous spore suspension of Zymoseptoria tritici either prior to or after fungicide treatments. After inoculation the plants were kept in 100% relative humidity (one day in a dark dew chamber followed by two to three days in a lighted dew chamber at 20° C.) to permit spores to germinate and infect the leaf. The plants were then transferred to a greenhouse set at 20° C. for disease to develop. When disease symptoms were fully expressed on the 1st leaves of untreated plants, infection levels were assessed on a scale of 0 to 100 percent disease severity. Percent disease control was calculated using the ratio of disease severity on treated plants relative to untreated plants.

Assay [2] deals with Puccinia triticina. Briefly: Fungicidal activity: Wheat Brown Rust (PUCCRT), wheat seedlings. It is filed as in vivo. The following applies: for pest or weed control at 121.5 g/ha: Low Volume (121.5 g/H); for pest or weed control at 100 µg/mL: High Volume (100 ppm). As for the experimental part: Technical grades of materials were dissolved in acetone, which were then mixed with nine volumes of water containing 110 ppm Triton X-100. The fungicide solutions were applied onto wheat seedlings using an automated booth sprayer to run-off. All sprayed plants were allowed to air dry prior to further handling. All fungicides were evaluated using the aforementioned method for their activity vs. all target diseases, unless stated otherwise. Wheat leaf blotch and brown rust activity were also evaluated using track spray applications, in which case the fungicides were formulated as EC formulations, containing 0.1% Trycol 5941 in the spray solutions. Wheat plants (variety Yuma) were grown from seed in a greenhouse in 50% mineral soil/50% soil-less Metro mix until the first leaf was fully emerged, with 7-10 seedlings per pot. These plants were inoculated with an aqueous spore suspension of Zymoseptoria tritici either prior to or after fungicide treatments. After inoculation the plants were kept in 100% relative humidity (one day in a dark dew chamber followed by two to three days in a lighted dew chamber at 20° C.) to permit spores to germinate and infect the leaf. The plants were then transferred to a greenhouse set at 20° C. for disease to develop. When disease symptoms were fully expressed on the 1st leaves of untreated plants, infection levels were assessed on a scale of 0 to 100 percent disease severity. Percent disease control was calculated using the ratio of disease severity on treated plants relative to untreated plants. Example B: Evaluation of Fungicidal Activity: Wheat Brown Rust (Puccinia triticina; Synonym: Puccinia recondita f. sp. tritici; Bayer Code PUCCRT) Wheat plants (variety Yuma) were grown from seed in a greenhouse in 50% mineral soil/50% soil-less Metro mix until the first leaf was fully emerged, with 7-10 seedlings per pot. These plants were inoculated with an aqueous spore suspension of Puccinia triticina either prior to or after fungicide treatments. After inoculation the plants were kept in a dark dew room at 22° C. with 100% relative humidity overnight to permit spores to germinate and infect the leaf. The plants were then transferred to a greenhouse set at 24° C. for disease to develop. Fungicide formulation, application and disease assessment followed the procedures as described in the Example A.

[3] abbreviates: 24 h, 1 Day Protectant, wheat, read-out: SEPTTR disease control rating, 1DP.
[4] abbreviates: 72 h, 3 Day Curative, wheat, read-out: SEPTTR disease control rating, 3DC.
Where [5] appears, read: 24 h, 1 Day Protectant, read-out: PUCCRT disease control rating, 1DP.
Where [6] appears, read: 72 h, 3 Day Curative, read-out: PUCCRT disease control rating, 3DC.
Setting [7] is: 24 h, High Volume (100 ppm), 1 Day Protectant, wheat, read-out: SEPTTR disease control rating, 1DP.
[8] abbreviates: 72 h, High Volume (100 ppm), 3 Day Curative, wheat, read-out: SEPTTR disease control rating, 3DC.

Each structure is given as a SMILES string. Like-named read-outs stand apart in the source and are kept apart here.

For `COc1ccnc(C(=O)N[C@H]2CCO[C@H](Cc3ccccc3)[C@@H](Oc3ccccc3)[C@H](C)OC2=O)c1OC(C)=O` [Compound 83], the pest or weed control at 121.5 g/ha in assay [1] (setting [3]), in assay [1] (setting [4]), in assay [2] (setting [5]) and in assay [2] (setting [6]) was > 70% each time.

Take `CCCO[C@H]1[C@H](C)OC(=O)[C@@H](NC(=O)c2nccc(OC)c2OC(C)=O)CCO[C@@H]1Cc1ccc(F)cc1` [Compound 81, 2-(((2R,3S,4S,7S)-2-(4-fluorobenzyl)-4-methyl-6-oxo-3-propoxy-1,5-dioxonan-7-yl)carbamoyl)-4-methoxypyridin-3-yl acetate]: the pest or weed control at 121.5 g/ha in assay [1] (setting [3]), in assay [1] (setting [4]), in assay [2] (setting [5]) and in assay [2] (setting [6]) was < 70% throughout.

With `COc1ccc(C[C@H]2OCC[C@H](NC(=O)c3nccc(OC)c3O)C(=O)O[C@@H](C)[C@@H]2Oc2ccccc2)cc1` [Compound 60], the pest or weed control at 100 µg/mL in assay [1] (setting [7]), in assay [1] (setting [8]), in assay [2] (setting [5]) and in assay [2] (setting [6]) was > 70% throughout.

Consider `COc1ccnc(C(=O)N[C@H]2CCO[C@H](Cc3ccccc3)[C@@H](Oc3ccccc3)[C@H](C)OC2=O)c1OCOC(C)=O` [Compound 82], for which the pest or weed control at 121.5 g/ha in assay [1] (setting [3]), in assay [1] (setting [4]), in assay [2] (setting [5]) and in assay [2] (setting [6]) was > 70% each time.

Take `CCCO[C@H]1[C@H](C)OC(=O)[C@@H](NC(=O)c2nccc(OC)c2O)CCO[C@@H]1Cc1ccc(F)cc1` [Compound 56, N-((2R,3S,4S,7S)-2-(4-fluorobenzyl)-4-methyl-6-oxo-3-propoxy-1,5-dioxonan-7-yl)-3-hydroxy-4-methoxypicolinamide]: the pest or weed control at 100 µg/mL in assay [1] (24 h, read-out: SEPTTR disease control rating, 1DP) was > 70%; in assay [1] (72 h, read-out: SEPTTR disease control rating, 3DC), > 70%; in assay [2] (setting [5]), > 70%; in assay [2] (setting [6]) it was > 70%.

As to `CC[C@H]1OCC[C@H](NC(=O)c2nccc(OC)c2O)C(=O)O[C@@H](C)[C@@H]1Oc1ccc(F)cc1` [Compound 64], the pest or weed control at 100 µg/mL in assay [1] (setting [7]), in assay [1] (setting [8]), in assay [2] (setting [5]) and in assay [2] (setting [6]) was > 70% each time.

Regarding `COc1ccnc(C(=O)N[C@H]2CCOC[C@@H](OCC(C)C)[C@H](C)OC2=O)c1OCOC(C)=O` [Compound 97], the pest or weed control at 121.5 g/ha in assay [1] (setting [3]), in assay [1] (setting [4]), in assay [2] (setting [5]) and in assay [2] (setting [6]) was > 70% each time.

With `COc1ccnc(C(=O)N[C@H]2CCO[C@H](Cc3ccccc3)[C@@H](OCC(C)C)[C@H](C)OC2=O)c1O` [Compound 51], the pest or weed control at 100 µg/mL was > 70% in assay [1] (setting [7]), < 70% in assay [1] (setting [8]), > 70% in assay [2] (setting [5]) and > 70% in assay [2] (setting [6]).

As for `COc1ccnc(C(=O)N[C@H]2CCO[C@H](Cc3ccc(F)cc3)[C@@H](Oc3ccccc3)[C@H](C)OC2=O)c1O` [Compound 52], the pest or weed control at 100 µg/mL in assay [1] (setting [7]), in assay [1] (setting [8]), in assay [2] (setting [5]) and in assay [2] (setting [6]) was > 70% throughout.

`COc1ccnc(C(=O)N[C@H]2CCO[C@H](Cc3ccccc3)[C@@H](Oc3ccccc3)[C@H](C)OC2=O)c1O` [Compound 57]: the pest or weed control at 100 µg/mL in assay [1] (setting [7]), in assay [1] (setting [8]), in assay [2] (setting [5]) and in assay [2] (setting [6]) was > 70% each time.

`COc1ccnc(C(=O)N[C@H]2CCO[C@H](CC3CCCC3)[C@@H](Oc3ccccc3)[C@H](C)OC2=O)c1OCOC(C)=O` [Compound 85]: the pest or weed control at 121.5 g/ha in assay [1] (setting [3]), in assay [1] (setting [4]), in assay [2] (setting [5]) and in assay [2] (setting [6]) was > 70% throughout.

Take `COc1ccc(C[C@H]2OCC[C@H](NC(=O)c3nccc(OC)c3O)C(=O)O[C@@H](C)[C@@H]2OCC2CC2)cc1` [Compound 59]: the pest or weed control at 100 µg/mL in assay [1] (setting [7]) is < 70%; in assay [1] (setting [8]) it was > 70%; in assay [2] (setting [5]), > 70%; in assay [2] (setting [6]), > 70%.

On to `CC[C@H]1OCC[C@H](NC(=O)c2nccc(OC)c2O)C(=O)O[C@@H](C)[C@@H]1OC(=O)C(C)C` [Compound 65], for which the pest or weed control at 100 µg/mL in assay [1] (setting [7]) was < 70%; in assay [1] (setting [8]) it was < 70%; in assay [2] (setting [5]), > 70%; in assay [2] (setting [6]), > 70%.

As to `COc1ccnc(C(=O)N[C@H]2CCOC[C@@H](OCc3ccccc3)[C@H](C)OC2=O)c1OCOC(C)=O` [Compound 96], the pest or weed control at 121.5 g/ha in assay [1] (setting [3]) was < 70%; in assay [1] (setting [4]), > 70%; in assay [2] (setting [5]) it was > 70%; in assay [2] (setting [6]), > 70%.

`CC[C@H]1OCC[C@H](NC(=O)c2nccc(OC)c2O)C(=O)O[C@@H](C)[C@@H]1OCC(C)C` [Compound 62]: the pest or weed control at 100 µg/mL in assay [1] (setting [7]) was < 70%; in assay [1] (setting [8]) it was > 70%; in assay [2] (setting [5]), > 70%; in assay [2] (setting [6]), > 70%.

Regarding `CC[C@H]1OCC[C@H](NC(=O)c2nccc(OC)c2OC(C)=O)C(=O)O[C@@H](C)[C@@H]1Oc1ccccc1` [Compound 94], the pest or weed control at 121.5 g/ha in assay [1] (setting [3]), in assay [1] (setting [4]), in assay [2] (setting [5]) and in assay [2] (setting [6]) was > 70% each time.

With `COc1ccnc(C(=O)N[C@H]2CCO[C@H](Cc3ccc(F)cc3)[C@@H](OC(=O)C(C)C)[C@H](C)OC2=O)c1OCOC(C)=O` [Compound 74], the pest or weed control at 121.5 g/ha in assay [1] (setting [3]), in assay [1] (setting [4]), in assay [2] (setting [5]) and in assay [2] (setting [6]) was > 70% throughout.

`COc1ccnc(C(=O)N[C@H]2CCOC[C@@H](OCCCC(F)(F)F)[C@H](C)OC2=O)c1O` [Compound 68]: the pest or weed control at 100 µg/mL is < 70% in assay [1] (setting [7]), < 70% in assay [1] (setting [8]), > 70% in assay [2] (setting [5]) and > 70% in assay [2] (setting [6]).

On to `COc1ccnc(C(=O)N[C@H]2CCO[C@H](Cc3ccc(F)cc3)[C@@H](Oc3ccccc3)[C@H](C)OC2=O)c1OCOC(C)=O` [Compound 73], for which the pest or weed control at 121.5 g/ha in assay [1] (setting [3]), in assay [1] (setting [4]), in assay [2] (setting [5]) and in assay [2] (setting [6]) was > 70% in each case.

For the compound `COc1ccnc(C(=O)N[C@H]2CCO[C@H](Cc3ccc(F)cc3)[C@@H](OC(=O)C(C)C)[C@H](C)OC2=O)c1OC(C)=O` [Compound 76], the pest or weed control at 121.5 g/ha in assay [1] (setting [3]), in assay [1] (setting [4]), in assay [2] (setting [5]) and in assay [2] (setting [6]) was > 70% in each case.

These data come from US20170334934A1, “Macrocyclic picolinamides as fungicides” (DOW AGROSCIENCES LLC, priority 2014, published 2017).
